For data set [1], the target named is Cytochrome P450 3A4 (Homo sapiens, UniProt P08684).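 Also: CYP3A4 tested as one member of a cytochrome P450 panel screen.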
The target in data set [2] is Cytochrome P450 2C19 (Homo sapiens, UniProt P33261). As to the kind of experiment: Cytochrome panel assay with activity outcomes. Panel member name: p450-cyp2c19 Compounds with AC50 equal or less than 10 uM are considered active. The class given is functional.
The target in data set [3] is Cytochrome P450 2C9 (Homo sapiens, UniProt P11712).
Cytochrome P450 2C9, sequence (P11712 whole entry): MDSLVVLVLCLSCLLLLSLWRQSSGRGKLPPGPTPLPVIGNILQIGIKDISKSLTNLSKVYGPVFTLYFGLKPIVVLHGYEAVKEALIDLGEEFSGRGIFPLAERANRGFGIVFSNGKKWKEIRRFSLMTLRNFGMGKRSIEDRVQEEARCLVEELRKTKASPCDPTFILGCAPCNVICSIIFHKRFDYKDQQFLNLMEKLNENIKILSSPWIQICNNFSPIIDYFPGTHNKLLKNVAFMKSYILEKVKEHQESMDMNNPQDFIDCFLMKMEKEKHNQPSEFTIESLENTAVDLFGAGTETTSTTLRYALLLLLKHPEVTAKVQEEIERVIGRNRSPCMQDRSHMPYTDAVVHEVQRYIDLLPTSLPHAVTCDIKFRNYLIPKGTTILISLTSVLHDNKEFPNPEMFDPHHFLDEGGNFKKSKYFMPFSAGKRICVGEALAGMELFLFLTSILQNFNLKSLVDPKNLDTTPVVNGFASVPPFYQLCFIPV
The target in data set [4] is T1, Heat shock factor protein 1 (Mus musculus, UniProt P38532).
T1 sequence (P38532 whole entry): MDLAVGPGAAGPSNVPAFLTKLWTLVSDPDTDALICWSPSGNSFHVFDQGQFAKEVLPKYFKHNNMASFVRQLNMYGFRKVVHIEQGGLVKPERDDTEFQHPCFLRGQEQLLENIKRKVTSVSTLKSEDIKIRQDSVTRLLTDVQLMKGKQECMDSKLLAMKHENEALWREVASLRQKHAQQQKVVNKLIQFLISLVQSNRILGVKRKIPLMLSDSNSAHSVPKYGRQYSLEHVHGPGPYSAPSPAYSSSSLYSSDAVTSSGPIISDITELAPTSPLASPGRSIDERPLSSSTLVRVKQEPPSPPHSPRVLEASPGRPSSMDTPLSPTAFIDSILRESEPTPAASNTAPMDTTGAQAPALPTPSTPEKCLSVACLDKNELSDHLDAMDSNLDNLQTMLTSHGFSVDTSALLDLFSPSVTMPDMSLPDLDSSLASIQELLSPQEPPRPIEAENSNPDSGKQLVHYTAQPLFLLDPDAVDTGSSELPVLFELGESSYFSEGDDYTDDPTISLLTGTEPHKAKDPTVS
The data set is described as follows: enhancement of HSF1-driven luciferase signal – cell-based, NIH3T3, luminescence, dose retest, confirmation (AID 435004).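 Also: stress induced by proteasome inhibitor MG132 added 30 min after compound; luciferase reporter driven by HSF1 response element in NIH3T3 cells; actives raise luminescence as potentiators of the MG132 stress response.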 The class given is functional.

Data set [5] in a line: viability of uninfected HEp-2 cells – cell-based, HTS, cytotoxicity control for RSV inhibitor project, dose response (AID 2410). The class given is functional. As to conditions: human respiratory syncytial virus.
Data set [6] has as its target T2, Cytochrome P450 1A2 (Homo sapiens, UniProt P05177).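 Also: PubChem cytochrome P450 panel assay, CYP1A2 panel member.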
T2 sequence (P05177 whole entry): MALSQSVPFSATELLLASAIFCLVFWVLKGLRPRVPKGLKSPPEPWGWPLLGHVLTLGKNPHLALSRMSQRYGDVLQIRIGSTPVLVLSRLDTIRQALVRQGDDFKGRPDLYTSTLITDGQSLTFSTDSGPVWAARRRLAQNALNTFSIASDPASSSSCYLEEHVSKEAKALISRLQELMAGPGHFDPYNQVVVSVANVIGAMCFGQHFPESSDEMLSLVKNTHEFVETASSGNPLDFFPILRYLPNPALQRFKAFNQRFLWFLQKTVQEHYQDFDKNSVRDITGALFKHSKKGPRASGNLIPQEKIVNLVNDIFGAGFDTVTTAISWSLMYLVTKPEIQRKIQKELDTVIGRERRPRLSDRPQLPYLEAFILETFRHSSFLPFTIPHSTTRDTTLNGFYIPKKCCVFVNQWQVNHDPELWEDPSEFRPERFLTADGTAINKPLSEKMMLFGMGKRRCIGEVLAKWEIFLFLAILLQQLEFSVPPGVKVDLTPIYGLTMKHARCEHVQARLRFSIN

Data set [7] has as its system Streptococcus. As to the kind of experiment: GAS UMAA2166 growth inhibition – luminescence, BacTiterGlo, counter-screen for streptokinase expression inhibitor project, dose response (AID 1915).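 Also: potency for reduction of bacterial viability or growth.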 The class given is functional, organism-based.
For data set [8], the system named is Streptococcus sp. 'group A'. As to the kind of experiment: Streptococcus pyogenes SK(-)GAS viability under kanamycin – luminescence, BacTiterGlo, confirmation, counter-screen for streptokinase expression inhibitor project, dose response (AID 1900). The class given is functional, organism-based.
Data set [9] has as its target T3, Streptokinase A (Streptococcus pyogenes serotype M1, UniProt P10520).
T3 sequence (P10520 whole entry): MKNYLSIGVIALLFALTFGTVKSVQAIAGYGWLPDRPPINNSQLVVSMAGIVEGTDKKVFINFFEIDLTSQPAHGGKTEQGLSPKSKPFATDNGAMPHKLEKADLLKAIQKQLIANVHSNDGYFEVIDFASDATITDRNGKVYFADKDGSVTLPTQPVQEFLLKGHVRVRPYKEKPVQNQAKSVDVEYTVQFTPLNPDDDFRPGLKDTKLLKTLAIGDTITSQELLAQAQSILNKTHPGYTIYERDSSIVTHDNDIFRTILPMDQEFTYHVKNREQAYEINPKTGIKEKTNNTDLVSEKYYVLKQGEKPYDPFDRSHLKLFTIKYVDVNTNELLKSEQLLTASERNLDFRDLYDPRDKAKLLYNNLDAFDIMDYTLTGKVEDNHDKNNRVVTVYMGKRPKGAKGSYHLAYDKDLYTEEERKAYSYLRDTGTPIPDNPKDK
The data set is described as follows: viability-normalized secreted streptokinase activity reduction – plasminogen activation absorbance, OD405, dose response (AID 1914).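 Also: secreted streptokinase activity via plasminogen activation per viability signal from cell pellet.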 It counts as functional, Streptococcus pyogenes M1 GAS.

The source made the active and inactive calls.

Cytochrome P450 3A4, sequence (P08684 whole entry): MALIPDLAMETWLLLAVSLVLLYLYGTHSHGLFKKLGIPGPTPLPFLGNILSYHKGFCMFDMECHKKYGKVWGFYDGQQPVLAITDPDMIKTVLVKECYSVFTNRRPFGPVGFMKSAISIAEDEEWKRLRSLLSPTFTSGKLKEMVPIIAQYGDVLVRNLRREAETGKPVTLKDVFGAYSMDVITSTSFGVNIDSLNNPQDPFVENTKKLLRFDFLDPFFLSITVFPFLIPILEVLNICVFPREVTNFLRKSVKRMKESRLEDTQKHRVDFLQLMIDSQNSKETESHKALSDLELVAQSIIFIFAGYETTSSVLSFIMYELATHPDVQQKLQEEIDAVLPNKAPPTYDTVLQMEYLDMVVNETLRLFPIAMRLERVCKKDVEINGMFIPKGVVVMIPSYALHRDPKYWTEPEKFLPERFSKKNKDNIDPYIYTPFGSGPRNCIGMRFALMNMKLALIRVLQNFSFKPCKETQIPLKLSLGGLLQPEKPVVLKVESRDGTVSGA
Cytochrome P450 2C19, sequence (P33261 whole entry): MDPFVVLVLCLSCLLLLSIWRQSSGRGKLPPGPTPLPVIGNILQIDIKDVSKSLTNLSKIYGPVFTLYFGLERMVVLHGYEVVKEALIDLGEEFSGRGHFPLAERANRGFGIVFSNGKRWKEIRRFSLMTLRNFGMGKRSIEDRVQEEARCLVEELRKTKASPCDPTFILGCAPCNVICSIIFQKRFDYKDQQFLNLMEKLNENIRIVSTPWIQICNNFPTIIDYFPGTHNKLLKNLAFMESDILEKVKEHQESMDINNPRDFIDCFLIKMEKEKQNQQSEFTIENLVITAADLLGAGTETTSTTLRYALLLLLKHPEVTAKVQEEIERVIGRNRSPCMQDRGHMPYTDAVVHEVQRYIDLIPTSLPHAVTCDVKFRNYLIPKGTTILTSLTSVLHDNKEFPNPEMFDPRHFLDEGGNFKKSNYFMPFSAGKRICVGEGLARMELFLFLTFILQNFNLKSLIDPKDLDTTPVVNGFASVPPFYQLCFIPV

Turning to `COCCn1c(=O)c(C)nc2cnc(OC)nc21`, the AC50 (as a rule, the midpoint of the concentration-response curve, whichever way the signal moves) in data set [1] is 31.6 µM (inconclusive).
As to `COc1ccc(Oc2ncc3nc(C)c(=O)n(C[C@H]4CCCO4)c3n2)cc1`, the figures for the AC50 in [2] (read-out: AC50) and in data set [3] were 25.1 µM (inconclusive) and 39.8 µM (inconclusive), respectively.
As for `COc1cc(-c2ccc(/N=N\c3ccc4c(S(=O)(=O)O)cc(S(=O)(=O)O)c(N)c4c3O)c(OC)c2)ccc1/N=N\c1ccc2c(S(=O)(=O)O)cc(S(=O)(=O)O)c(N)c2c1O`, the AC50 in data set [1] and in data set [3] was 10 µM (inconclusive) throughout.
For the compound `O=c1c(-c2ccc(F)cc2)nc2cnc(Oc3cccc(Cl)c3)nc2n1C[C@H]1CCCO1`, the concentration at half-maximal activity (AC50) in data set [1] is 12.6 µM (inconclusive); in [2] (read-out: AC50), 39.8 µM (inconclusive).
For the compound `Cc1cc(NC(=O)c2c([N+](=O)[O-])cnn2C)no1`, the AC50 was 25.1 µM (inconclusive) in data set [1] and 39.8 µM (inconclusive) in [3].
Regarding `O=C(c1ccco1)N1CCC[C@@]2(CCN(C(c3ccccc3)c3ccccc3)C2)C1`, the AC50 in [3] was 31.6 µM (inconclusive).
Regarding `CC(C)OC(=O)c1ccc(COc2ccc3ccc(=O)oc3c2)o1`, the EC50 (in general, the concentration at which the effect is half-maximal) in [4] is 66.6 µM (active).
On to `CC(=O)c1coc2c1cc(O)c1ccccc12`, for which, in data set [5], the CC50 – broadly, the concentration that lowers cell viability or growth by half – was > 50 µM (active).
Same read-out and setting: as for `CCN1C(=O)N[C@@H](CCc2ccccc2)C(C(=O)OC)=C1C`, the figure is 29.9 µM (active); as for `O=C(Cn1ccc(C(F)(F)F)n1)N=Nc1c(O)[nH]c2ccc(Br)cc12`, > 50 µM (active).
Take `COc1ccc(-n2c(=O)c3c4c(sc3n(CC(N)=O)c2=O)CCCCC4)cc1`: the EC50 in data set [4] is > 260 µM (inactive).
As to `CC(C)(C)OC(=O)N1CSC[C@H]1C(=O)NC[C@H](CC(=O)O)c1ccc(Cl)cc1`, in data set [4], the EC50 was > 260 µM (inactive).
For the compound `C=CCCN(C1CCCC1)S(=O)(=O)c1ccccc1Br`, the CC50 in data set [5] is > 50 µM (active).
As to `COc1cccc(N/C(SCc2cccc([N+](=O)[O-])c2)=C(/C#N)C(=O)NCc2cccs2)c1`, the EC50 in data set [4] was > 260 µM (inactive).
For `Cc1cccc(C2C3=C(CCCC3=O)N=C3c4ccccc4C(=O)C32)c1` (configuration not stated), the 50% effective concentration (EC50) in data set [4] is 26.1 µM (active).
Consider `COc1ccccc1C(=O)CSc1nnc(-c2ccco2)o1`, for which, in [4], the EC50 is 65 µM (active).
For `CN(C)C(=O)c1ccc(-c2cc(NCc3cccnc3)ncn2)cc1`, the concentration at half-maximal activity (AC50) in data set [6] was 20 µM (inconclusive).
With `Cc1ccc(-c2nc3ccccc3[nH]2)cc1NC(=O)c1ccc2c(c1)OCO2`, the 50% effective concentration (EC50) in [4] is 70.2 µM (active).
As for `CCN1CCN(S(=O)(=O)c2ccc(Cl)c(C(=O)Nc3nnc(CC(C)C)s3)c2)CC1`, the AC50 in [2] (read-out: AC50) was 39.8 µM (inconclusive); in [3], 25.1 µM (inconclusive).
`Cc1ccc2nc(O)c(COC(=O)C3CCCCC3)cc2c1`: the CC50 in [5] was > 50 µM (active).
As for `CN(C(=S)NC(=O)c1ccccc1Br)C1CCCCC1`, the AC50 in data set [1] was 2.51 µM (inconclusive).
`COc1ccc(C2(C)NC(=O)N(CC(=O)Nc3ccc(-c4nc5ccc(C)cc5s4)cc3)C2=O)cc1` (configuration not stated): the CC50 in data set [5] is 29.8 µM (active).
As to `Cc1ccc(C)c(NC2CCCCC2NS(=O)(=O)c2ccccc2)c1` (configuration not stated), in data set [4], the EC50 was > 260 µM (inactive).
Still for that read-out and setting: to `CCCNC(=O)NC(=O)CSc1cccc(C(F)(F)F)c1` belongs > 260 µM (inactive).
For `Cc1ccc(Cn2cccc(NC(=O)NCc3ccccc3)c2=O)cc1`, the AC50 in [2] (read-out: AC50) is 5.01 µM (inconclusive); in data set [3], 14.1 µM (inconclusive).
For `CCOc1ccc(-c2nn(-c3ccccc3)cc2/C=C(\C#N)S(=O)(=O)c2ccccc2)cc1C`, the AC50 was 11.2 µM (inconclusive) in data set [1] and 10 µM (inconclusive) in [3].
For the compound `Cc1cc(N2CCOCC2)nc2ccc(NC(=O)CCC(=O)N3CCN(c4ccc(F)cc4)CC3)cc12`, the CC50 in [5] is > 12.5 µM (active).
As to `O=C(CCC(=O)Nc1ccccc1)NNC(=O)c1cccs1`, the AC50 in data set [2] (read-out: AC50) is 39.8 µM (inconclusive); in data set [3], 31.6 µM (inconclusive).
For the compound `O=c1nc(SCc2cccc([N+](=O)[O-])c2)[nH]c2nc[nH]c12`, the AC50 in data set [1] is 3.16 µM (inconclusive); in data set [2], “inconclusive”.
In the case of `CCCCCSc1nc2c(c(=O)[nH]c(=O)n2C)n1C`, the CC50 in [5] is > 50 µM (active).
As for `O=C(Nc1cccc(-c2csc(Nc3ccc(Cl)cc3)n2)c1)c1ccccc1`, the EC50 in data set [7] is 5.66 µM (active); in data set [8], 4.01 µM (active); in [9], > 150 µM (not active). In [5], the CC50 is 10.3 µM (active).
As for `CC(C)(O)C#Cc1ccc(C(=O)NCc2cccs2)s1`, the results for the AC50 in data set [1] and in data set [2] (read-out: AC50) were 28.2 µM (inconclusive) and 17.8 µM (inconclusive), respectively.
For `CCC(C(=O)NC(C)CCc1ccccc1)n1nc(C)n2c(cc3occc32)c1=O` (configuration not stated), the CC50 in data set [5] was 39.2 µM (active).
As to `CCc1nc(O)c(C#N)c2c1CSC(C)(C)C2`, in data set [4], the EC50 is > 260 µM (inactive).
Regarding `COc1ccc(-n2cnnc2SCC(=O)N(C)C2CCS(=O)(=O)C2)cc1` (configuration not stated), the EC50 in data set [4] is > 260 µM (inactive).
The same measure, in the same setting: to `C/C=C(/C)C(=O)Nc1cccc(C2=NOC3(C2)C[C@@H](C(N)=O)N(C(=O)CC)C3)c1` (some centres not stated) belongs > 260 µM (inactive).
Same read-out and setting: to `Nc1ncnc2c1CCC2` belongs > 260 µM (inactive); to `COc1cccc(N2CCN(S(=O)(=O)c3ccc(-c4coc(C)n4)cc3)CC2)c1`, > 260 µM (inactive).
`O=C(Nc1cccc(C(F)(F)F)c1)c1n[nH]c(Cn2cncn2)n1`: the AC50 in data set [1] was 25.1 µM (inconclusive); in [2] (read-out: AC50) it was 28.2 µM (inconclusive).
Regarding `CC1=C(C#N)C(NC(=O)C2CCCCC2)(C(F)(F)F)C(=O)N1` (configuration not stated), the AC50 was 28.2 µM (inconclusive) in [2] (read-out: AC50) and 7.94 µM (inconclusive) in data set [3].
Consider `COc1ccccc1N1CCN(c2nc(-c3ccccc3)cc(C(F)(F)F)n2)CC1`, for which, in data set [6], the AC50 is 0.631 µM (inconclusive).
Consider `CCN1C(=O)/C(=C\c2c[nH]c3ccccc23)S/C1=N\c1ccc(C)cc1`, for which, in [6], the AC50 was 6.31 µM (inconclusive).
On the same count and under the same terms, to `C[C@@H]1c2ccccc2Cn2cc3c(c21)C(=O)c1cccc(O[P@@](=O)(O)OCc2ccccc2)c1C3=O` belongs 3.16 µM (inconclusive).
Consider `FC(F)(F)c1ccccc1/C=N/n1c(S)nnc1COc1ccccc1`, for which the CC50 in data set [5] was 32.1 µM (active).
`ClCC1CS/C(=N\C23CC4CC(CC(C4)C2)C3)O1` (configuration not stated): the EC50 in data set [4] was > 260 µM (inactive).
Regarding `COc1ccc(CCNC=C2C(=O)CC(C)(C)CC2=O)cc1`, the concentration at half-maximal activity (AC50) in [2] (read-out: AC50) is 28.2 µM (inconclusive); in [3] it was 12.6 µM (inconclusive).
Regarding `Cn1c(CN2CCN(c3ccc(Cl)cc3)CC2)nc2ccccc21`, the EC50 in [4] was > 260 µM (inactive).
On to `Clc1cncc(N2CCNCC2)n1` [MK-212], for which the values for the AC50 in [1] and in [2] (read-out: AC50) were 15.8 µM (inconclusive) and 6.31 µM (inconclusive), respectively.
Turning to `COc1cc(OC)c(C(=O)CCCCN2CCC3(CC2)NC(=O)NC3=O)cc1NS(=O)(=O)c1ccc(C(F)(F)F)cc1` [RS-102,221], the AC50 in data set [1] was 7.94 µM (inconclusive).
Turning to `CN1C(C(=O)Nc2ccccn2)=C(O)c2sccc2S1(=O)=O` [TENOXICAM], the half-maximal activity concentration (AC50) in [3] was 2.51 µM (inconclusive).

Values taken from ChEMBL document CHEMBL1201862, “PubChem BioAssay data set” (2004).
